Drawing on patent US6335339B1, “Triazine antiviral compounds” (Scriptgen Pharmaceuticals, Inc., priority 1998, dated 2002), this text covers IC50 and Specificity for 28 molecules.

This experiment deals with HBV εRNA. In words: εRNA/oligonucleotide hybridization inhibition assay with rRNA competitor. In kind it is binding, Hepatitis B virus. The following applies: for IC50: radiolabeled εRNA, 60-fold excess rRNA competitor; for Specificity: ratio RRE+rRNA IC50/εRNA+rRNA IC50, max = inactive in RRE assay. The essentials:
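Inhibition of hybridization between 25 nM [32P]-εRNA and 100 nM biotinylated complementary oligonucleotide (50 mM Tris-HCl pH 7.5, 200 mM KCl, 5 mM MgCl2, 60 min, 25 °C), hybrids captured by streptavidin filter and counted. Titrations 0.1-200 μM with 60-fold excess rRNA; specificity = RRE+rRNA IC50/εRNA+rRNA IC50.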

What is called IC50 is the concentration needed to halve the response being measured. On to `CC(C)(C)Nc1nc(NCc2ccccc2)nc(NN=Cc2ccc3c(c2)OCO3)n1` [Compound 67], for which the IC50 is 47.7 µM and the Specificity entry is “max”.
For `Cc1[nH]c2ccccc2c1C=NNc1nc(Nc2ccccc2)nc(N2CCOCC2)n1` [Compound 4] the same measures were 16.3 µM and “max”.
Taken in the same sequence, the figures for `CCN(CC)c1nc(N/N=C/c2ccc([N+](=O)[O-])cc2)nc(Nc2cc(C)ccc2C)n1` [Compound 63] were 69 µM and “max”.
Taken in the same sequence, the figures for `CC(C)c1ccc(C=NNc2nc(Nc3ccc([N+](=O)[O-])cc3)nc(N3CCCCC3)n2)cc1` [Compound 62] were 54.3 µM and “max”.
On to `CCCCN(CCCC)c1nc(NN=C(C)c2ccccc2)nc(Nc2ccc([N+](=O)[O-])cc2)n1` [Compound 74], for which the IC50 stood at 126 µM and the Specificity entry is listed as “max”.
Consider `CCN(CC)c1nc(NN=Cc2cc([N+](=O)[O-])ccc2OC)nc(Nc2cc(C)ccc2C)n1` [Compound 85], for which the IC50 was 53.8 µM and the Specificity entry is “max”.
For `CCN(CC)c1nc(NN=Cc2ccc(F)cc2)nc(Nc2ccc([N+](=O)[O-])cc2)n1` [Compound 68] the same measures were 33 µM and “max”.
For `CNc1nc(NN=Cc2ccccc2[N+](=O)[O-])nc(Nc2ccccc2)n1` [Compound 65] the same measures were 99.9 µM and “max”.
Taken in the same sequence, the figures for `Brc1cc2c(cc1C=NNc1nc(NCc3ccccc3)nc(Nc3ccccc3)n1)OCO2` [Compound 43] were 30.1 µM and “max”.
On to `O=[N+]([O-])c1ccc(Nc2nc(N/N=C/c3cccc(Cl)c3)nc(N3CCCCC3)n2)cc1` [Compound 41], for which the IC50 turned out to be 24.9 µM and the Specificity result is given as “max”.
Turning to `CC(C)c1ccc(C=NNc2nc(Nc3ccc([N+](=O)[O-])cc3)nc(N3CCCCCC3)n2)cc1` [Compound 56], the IC50 was determined as 42.1 µM and the Specificity result is recorded as “max”.
For `COc1ccc(C=NNc2nc(Nc3ccc([N+](=O)[O-])cc3)nc(N3CCCCC3)n2)cc1` [Compound 44], the IC50 worked out at 35 µM and the Specificity result was “max”.
On to `O=[N+]([O-])c1ccc(C=NNc2nc(Nc3ccccc3)nc(NC3CCCCC3)n2)cc1` [Compound 46], for which the IC50 is 23.1 µM and the Specificity entry is listed as “max”.
For `Cc1ccc(Nc2nc(NN=Cc3ccc(Cl)c(Cl)c3)nc(Nc3ccccc3)n2)c(C)c1` [Compound 40] the same measures were 21.9 µM and “max”.
On to `Cc1ccc(Nc2nc(NN=Cc3ccc4c(c3)OCO4)nc(Nc3ccccc3)n2)c(C)c1` [Compound 51], for which the IC50 came out at 39.9 µM and the Specificity entry is “max”.
On to `Cc1ccc(Nc2nc(NN=Cc3ccc(Cl)cc3)nc(Nc3ccccc3)n2)c(C)c1` [Compound 42], for which the IC50 is 30 µM and the Specificity entry is recorded as “max”.
For `Oc1ccc(Nc2nc(Nc3cccc(C(F)(F)F)c3)nc(N3CCOCC3)n2)cc1` [Compound 53] the same measures were 70.1 µM and “max”.
In the case of `Cc1ccc(Nc2nc(NN=Cc3cccc(Br)c3)nc(Nc3ccccc3)n2)c(C)c1` [Compound 49], the IC50 stood at 35 µM and the Specificity result is reported as “max”.
Consider `CCCCN(CCCC)c1nc(NN=Cc2c[nH]c3ccccc23)nc(Nc2ccc([N+](=O)[O-])cc2)n1` [Compound 39], for which the IC50 was determined as 39.9 µM and the Specificity result is “max”.
Regarding `CC(C)(C)Nc1nc(NCc2ccccc2)nc(N/N=C/c2ccccc2F)n1` [Compound 93, 2-fluorobenzaldehyde N-[4-(benzylamino)-6-(tert-butylamino)-1,3,5-triazin-2-yl]hydrazone], the IC50 turned out to be 12.7 µM and the Specificity result is reported as “max”.
Regarding `FC(F)(F)c1cccc(Nc2nc(Nc3cccc(Br)c3)nc(N3CCOCC3)n2)c1` [Compound 38], the IC50 is 34.9 µM and the Specificity result is “max”.
Consider `COc1ccc(C=NNc2nc(Nc3ccccc3)nc(Nc3ccc(C)cc3C)n2)c(OC)c1` [Compound 61], for which the IC50 was determined as 42.6 µM and the Specificity result is on record as “max”.
With `C(=Cc1ccccc1)C=NNc1nc(NCc2ccccc2)nc(Nc2ccccc2)n1` [Compound 91], the IC50 was found to be 17.1 µM and the Specificity was 46.8.
For `Cc1[nH]c2ccccc2c1C=NNc1nc(Nc2ccccc2)nc(N2CCCCC2)n1` [Compound 88] the same measures were 11.7 µM and 80.2.
For `Cc1[nH]c2ccccc2c1C=NNc1nc(NCc2ccccc2)nc(Nc2ccccc2)n1` [Compound 50] the same measures were 39.9 µM and “max”.
For `O=[N+]([O-])c1cc(C=NNc2nc(Nc3ccccc3)nc(N3CCOCC3)n2)ccc1Cl` [Compound 52], the IC50 was 66 µM and the Specificity result is listed as “max”.
For `COc1ccccc1C=NNc1nc(Nc2ccc([N+](=O)[O-])cc2)nc(Nc2ccc(C)c(C)c2)n1` [Compound 94] the same measures were 12 µM and 20.8.
Taken in the same sequence, the figures for `C(=NNc1nc(Nc2ccccc2)nc(N2CCCCC2)n1)c1ccccc1` [Compound 3] were 66.9 µM and “max”.
